Reference: patent US8530490B2, “Uracil compound or salt thereof having human deoxyuridine triphosphatase inhibitory activity” (Taiho Pharmaceutical Co., Ltd., priority 2008, dated 2013)
pIC50: −log10 of the molar value.

The compounds below were run against human dUTPase (Homo sapiens (Human), UniProt P33316) (assay: Human dUTPase inhibitory effect: production of [5-3H]dUMP from [5-3H]dUTP, measured by HPLC with flow scintillation). Conditions: [5-3H]dUMP production from [5-3H]dUTP, 37° C., 15 minutes.
human dUTPase, sequence (P33316 94-252): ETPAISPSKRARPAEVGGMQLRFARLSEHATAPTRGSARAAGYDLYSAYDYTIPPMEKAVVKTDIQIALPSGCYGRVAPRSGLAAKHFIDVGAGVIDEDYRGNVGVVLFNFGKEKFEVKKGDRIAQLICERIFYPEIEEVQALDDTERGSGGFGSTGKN
Format: biochemical
Outline: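 E. coli-expressed purified human dUTPase reacted with 1 μM dUTP stock containing [5-3H]dUTP in Tris pH 7.4, MgCl2, 2-mercaptoethanol and albumin, 15 min at 37° C; stopped by 1 min at 100° C. [5-3H]dUMP formed was separated by reversed-phase ion-pair HPLC and quantified by flow scintillation versus water control.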
In the case of C[C@@H](NS(=O)(=O)CC/C=C/Cn1ccc(=O)[nH]c1=O)c1cccc(OC2CCCC2)c1 [Example 105, (R,E)-N-(1-(3-(cyclopentyloxy)phenyl)ethyl)-5-(2,4-dioxo-3,4-dihydropyrimidin-1(2H)-yl)pent-3-ene-1-sulfonamide], the pIC50 was 6.77.
CC(C)COc1cccc([C@@H](C)NS(=O)(=O)CCCOCn2ccc(=O)[nH]c2=O)c1 [Example 58, (R)-3-((2,4-dioxo-3,4-dihydropyrimidin-1(2H)-yl)methoxy)-N-(1-(3-isobutoxyphenyl)ethyl)propane-1-sulfonamide] gave a pIC50 of 6.51.
In the case of C[C@@H](NS(=O)(=O)CCCOCn1ccc(=O)[nH]c1=O)c1cccc(OC(CF)CF)c1 [Example 56, (R)—N-(1-(3-(1,3-difluoropropan-2-yloxy)phenyl)ethyl)-3-((2,4-dioxo-3,4-dihydropyrimidin-1(2H)-yl)methoxy)propane-1-sulfonamide], the pIC50 was 6.07.
O=c1ccn(COCCCS(=O)(=O)NCc2cccc(OC3CC3)c2)c(=O)[nH]1 [Example 33, N-(3-cyclopropoxybenzyl)-3-((2,4-dioxo-3,4-dihydropyrimidin-1(2H)-yl)methoxy)propane-1-sulfonamide] gave a pIC50 of 5.95.
For C#CCOc1cccc([C@@H](C)NS(=O)(=O)CCCOCn2ccc(=O)[nH]c2=O)c1 [Example 57, (R)-3-((2,4-dioxo-3,4-dihydropyrimidin-1(2H)-yl)methoxy)-N-(1-(3-(prop-2-ynyloxy)phenyl)ethyl)propane-1-sulfonamide], the pIC50 was 5.93.
For O=c1ccn(COCCCS(=O)(=O)NC(c2ccccc2)c2ccccc2)c(=O)[nH]1 [Example 76, N-benzhydryl-3-((2,4-dioxo-3,4-dihydropyrimidin-1(2H)-yl)methoxy)propane-1-sulfonamide], the pIC50 was 5.68.
With O=c1ccn(CCCS(=O)(=O)N2CCC[C@@H]2C(O)(c2ccc(F)cc2)c2ccc(F)cc2)c(=O)[nH]1 [Example 131, (R)-1-(3-(2-(bis(4-fluorophenyl)(hydroxy)methyl)pyrrolidin-1-ylsulfonyl)propyl)pyrimidine-2,4(1H, 3H)-dione] the pIC50 was 6.40.
For C[C@@H](NS(=O)(=O)CCCOCn1ccc(=O)[nH]c1=O)c1ccc(F)c(OCC2CC2)c1 [Example 8, (R)—N-(1-(3-(cyclopropylmethoxy)-4-fluorophenyl)ethyl)-3-((2,4-dioxo-3,4-dihydropyrimidin-1(2H)-yl)methoxy)propane-1-sulfonamide], the pIC50 was 7.05.
In the case of C[C@@H](NS(=O)(=O)CCCOCn1ccc(=O)[nH]c1=O)c1cccc(OC2CC2)c1 [Example 13, (R)—N-(1-(3-cyclopropoxyphenyl)ethyl)-3-((2,4-dioxo-3,4-dihydropyrimidin-1(2H)-yl)methoxy)propane-1-sulfonamide], the pIC50 was 6.48.
O=c1ccn(COCCCS(=O)(=O)N2CCC[C@@H]2C(c2ccccc2)c2ccccc2)c(=O)[nH]1 [Example 79, (R)-1-((3-(2-benzhydrylpyrrolidin-1-ylsulfonyl)propoxy)methyl)pyrimidine-2,4(1H, 3H)-dione] was tested, and the pIC50 was 5.78.
CC(C)(NS(=O)(=O)CCCOCn1ccc(=O)[nH]c1=O)c1cccc(OCC2CC2)c1 [Example 26, N-(2-(3-(cyclopropylmethoxy)phenyl)propan-2-yl)-3-((2,4-dioxo-3,4-dihydropyrimidin-1(2H)-yl)methoxy)propane-1-sulfonamide] was tested, and the pIC50 was 6.28.
For C[C@@H](NS(=O)(=O)CCCOCn1ccc(=O)[nH]c1=O)c1cccc(OCC2CC2)c1 [Example 23, (R)—N-(1-(3-(cyclopropylmethoxy)phenyl)ethyl)-3-((2,4-dioxo-3,4-dihydropyrimidin-1(2H)-yl)methoxy)propane-1-sulfonamide], the pIC50 was 7.30.
CCC[C@@H](C)Oc1cccc([C@@H](C)NS(=O)(=O)CCCOCn2ccc(=O)[nH]c2=O)c1 [Example 71, 3-((2,4-dioxo-3,4-dihydropyrimidin-1(2H)-yl)methoxy)-N—((R)-1-(3-((R)-pentan-2-yloxy)phenyl)ethyl)propane-1-sulfonamide] showed a pIC50 of 6.03.
In the case of COc1cccc(S(=O)(=O)NC(C)(C)CCCOCn2ccc(=O)[nH]c2=O)c1 [Example 135, N-(5-((2,4-dioxo-3,4-dihydropyrimidin-1(2H)-yl)methoxy)-2-methylpentan-2-yl)-3-methoxybenzenesulfonamide], the pIC50 was 5.95.
With O=c1ccn(COCCCS(=O)(=O)NCc2ccc(F)c(OC3CCCC3)c2)c(=O)[nH]1 [Example 44, N-(3-(cyclopentyloxy)-4-fluorobenzyl)-3-((2,4-dioxo-3,4-dihydropyrimidin-1(2H)-yl)methoxy)propane-1-sulfonamide] the pIC50 was 6.80.
CC(C)(CCCOCn1ccc(=O)[nH]c1=O)NS(=O)(=O)c1ccccc1Br [Example 156, 2-bromo-N-(5-((2,4-dioxo-3,4-dihydropyrimidin-1(2H)-yl)methoxy)-2-methylpentan-2-yl)benzenesulfonamide] was tested, and the pIC50 was 5.05.
O=c1ccn(CCCS(=O)(=O)NC(c2ccccc2)c2cccc(OCC3CC3)c2)c(=O)[nH]1 (stereo not drawn) [Example 112, N-((3-(cyclopropylmethoxy)phenyl)(phenyl)methyl)-3-(2,4-dioxo-3,4-dihydropyrimidin-1(2H)-yl)propane-1-sulfonamide] gave a pIC50 of 5.65.
For O=c1ccn(CCCCCS(=O)(=O)NCc2cccc(OCC3CC3)c2)c(=O)[nH]1 [Example 103, N-(3-(cyclopropylmethoxy)benzyl)-5-(2,4-dioxo-3,4-dihydropyrimidin-1(2H)-yl)pentane-1-sulfonamide], the pIC50 was 6.28.
Work on C[C@@H](NS(=O)(=O)CCCOCn1ccc(=O)[nH]c1=O)c1cccc(OC2CCCC2)c1 [Example 5, (R)—N-(1-(3-(cyclopentyloxy)phenyl)ethyl)-3-((2,4-dioxo-3,4-dihydropyrimidin-1(2H)-yl)methoxy)propane-1-sulfonamide] yielded a pIC50 of 7.22.
Work on CC(C)(CCCOCn1ccc(=O)[nH]c1=O)NS(=O)(=O)c1ccccc1 [Example 158, N-(5-((2,4-dioxo-3,4-dihydropyrimidin-1(2H)-yl)methoxy)-2-methylpentan-2-yl)benzenesulfonamide] yielded a pIC50 of 5.02.
C[C@@H](NS(=O)(=O)CCCn1ccc(=O)[nH]c1=O)c1cccc(OCC(F)F)c1 [Example 107, (R)—N-(1-(3-(2,2-difluoroethoxy)phenyl)ethyl)-3-(2,4-dioxo-3,4-dihydropyrimidin-1(2H)-yl)propane-1-sulfonamide] was tested, and the pIC50 was 5.76.
